Common to all, as to test: DTP human tumour cell line panel, 48 h
Assay [1] concerns UO-31 renal.
Assay [2] deals with A498 renal.
Assay [3] deals with SF-539 CNS.
In assay [4] the test system is NCI/ADR-RES ovarian.
The test system of assay [5] is MALME-3M melanoma.
For assay [6], the system named is SK-MEL-28 melanoma.
The subject of assay [7] is PC-3 prostate.
In assay [8] the test system is HCT-15 colon.
Assay [9] concerns SF-295 CNS.
The test system of assay [10] is ACHN renal.

Several values for one entry are separate records, joined by “and”; a condition that tells them apart may be missing. Identical values can stand only once.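 Cultured in 96-well plates, cells were exposed to test compound for 48 hours across five concentrations. The concentration for 50% growth inhibition is given as GI50. TGI: concentration producing complete growth inhibition.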

The term GI50 denotes the concentration giving 50% growth inhibition. As usually defined, the TGI is the concentration at which net growth stops. A higher TGI goes with less potent growth arrest. As for `COc1ccc(-c2nn(-c3cccc(Cl)c3)cc2-c2cc(-c3ccccc3)nc(N)n2)cc1`, the GI50 is 10 µM in assay [1]; 2.21 µM in assay [2]; 11 µM in assay [3]; 8.72 µM in [4]; 8.95 µM in [5]; 12.4 µM in [6]. Also, the GI50 in assay [7] was 1.6 µM; in [8] it was 3.6 µM; in assay [9], 3.12 µM; in [10], 4.58 µM. In addition, the TGI in assay [1] amounted to 26.5 µM; in [2] it was 11.9 µM; in assay [3] it was 27.7 µM; in assay [4] it was 31 µM; in assay [5], 31.8 µM; in assay [6], 42.1 µM. The total growth inhibition concentration (TGI) turned out to be 6.56 µM in [7], 16.1 µM in [8], 11.7 µM in assay [9] and 15.8 µM in assay [10].
In the case of `CCCOc1nc(SCCC)nc2c1cnn2-c1ccccc1`, the GI50 in [1], in [2], in assay [3], in assay [4], in [5] and in assay [6] was above 100 µM in each case. The GI50 in assay [7] was 30.7 µM; in assay [8], above 100 µM; in assay [9], 31.8 µM; in [10], above 100 µM. Also, the TGI in assay [1], in [2], in assay [3], in [4], in [5] and in assay [6] was above 100 µM each time. In addition, the TGI in assay [7], in assay [8], in [9] and in assay [10] was above 100 µM throughout.
In the case of `CN(C(=O)c1ccncc1)c1ccccc1`, the concentration for total growth inhibition (TGI) in [1], in assay [2], in [3], in [4], in [5] and in assay [6] was above 100 µM in each case. Further, the total growth inhibition concentration (TGI) in assay [7], in assay [8], in assay [9] and in assay [10] was above 100 µM in each case.
For `CCCCN(CCCC)c1ccc(C(=NC(C)CCCN(CC)CC)c2ccc(N(C)C)cc2)cc1` (stereo not given), the GI50 was 0.713 µM in assay [1]; 0.789 µM in assay [2]; 0.899 µM in assay [3]; 0.893 µM in [4]; 0.785 µM in assay [5]; 0.939 µM in assay [6]. Moreover, the GI50 in assay [7] was 0.885 µM; in assay [8], 0.767 µM; in [9], 0.88 µM; in [10] it was 0.935 µM. Besides, the TGI in assay [1] was found to be 1.42 µM; in [2], 2.39 µM; in assay [3], 1.72 µM; in assay [4], 1.94 µM; in [5], 1.62 µM; in [6], 1.92 µM. Also, the concentration for total growth inhibition (TGI) in assay [7] amounted to 1.93 µM; in assay [8] it was 1.56 µM; in assay [9] it was 1.73 µM; in assay [10], 1.89 µM.
For the molecule `Cn1ccnc1C(=O)/C=C/c1ccc(CC(=O)Nc2ccc(C(F)(F)F)cc2)cc1`, the GI50 in assay [1] is 2.51 µM; in [2] it was 4.17 µM; in assay [3], 2.21 µM; in [4] it was 4.32 µM; in assay [5], 3.95 µM; in assay [6] it was 2.92 µM. Besides, the GI50 in [7] is 1.01 µM; in assay [8], 1.4 µM; in [9], 2.56 µM; in [10], 2.95 µM. For the same molecule, the TGI in assay [1] turned out to be 4.76 µM; in assay [2] it was 11.8 µM; in assay [3], 4.45 µM; in assay [4], 10.9 µM; in [5], 10.7 µM; in [6], 6.25 µM. Moreover, the TGI in [7] was 4.6 µM; in assay [8], above 16.7 µM; in [9], 5.17 µM; in [10], 5.96 µM.
Take `Cc1ccc2c(c1)C(=O)c1c-2n(CCCBr)c(=O)c2cc([N+](=O)[O-])ccc12`: the GI50 in assay [1] is 27.5 µM; in assay [2] it was 51.7 µM; in assay [3], above 100 µM; in assay [4], 54.7 µM; in [5], above 100 µM; in assay [6] it was above 100 µM. The GI50 in [7] was 17.4 µM; in assay [8] it was 97.8 µM; in assay [9], 73.8 µM; in assay [10] it was 23.3 µM. The TGI in assay [1], in assay [2], in assay [3], in [4], in assay [5] and in [6] was above 100 µM throughout. The total growth inhibition concentration (TGI) in assay [7], in assay [8], in assay [9] and in [10] was above 100 µM in each case.
On to `COc1cc(C(=O)/C=C/c2cccnc2Nc2ccccc2)cc(OC)c1OC`, for which the GI50 was 1.19 µM in assay [1]; 1.42 µM in assay [2]; 1.65 µM in assay [3]; 1.03 µM in assay [4]; 1.92 µM in assay [5]; 1.58 µM in assay [6]. Also, the GI50 in [7] was 1.1 µM; in assay [8], 0.744 µM; in assay [9], 1.87 µM; in assay [10], 1.28 µM. The TGI in [1] turned out to be 2.57 µM; in [2], 2.75 µM; in [3], 3.12 µM; in assay [4], 4.56 µM; in assay [5], 3.84 µM; in assay [6] it was 2.93 µM. Moreover, the TGI in [7] turned out to be 3.18 µM; in assay [8] it was 2.4 µM; in assay [9] it was 3.78 µM; in assay [10] it was 2.57 µM.
For `c1ccc(P(CCP(CCP(c2ccccc2)c2ccccc2)c2ccccc2)CCP(c2ccccc2)c2ccccc2)cc1` (stereo not given), the TGI in [1] is above 10 µM; in assay [2], above 10 µM; in [3], > 10 µM and 9.84 µM; in assay [4], above 10 µM; in [5] it was above 10 µM; in assay [6] it was above 10 µM. Also, the TGI in [7], in assay [8], in assay [9] and in assay [10] was above 10 µM in each case. For the same molecule, the GI50 in assay [6] was > 10 µM and 2.01 µM; in assay [7], above 10 µM; in [9], > 10 µM and 3.56 µM; in assay [10] it was above 10 µM.
With `Nc1nc(N)c(N=O)c(OCC2CCCCC2)n1`, the GI50 in assay [1] was 3.24 µM; in [3], 15.6 µM; in [5], 3.06 µM and 7.32 µM; in assay [6], 13.2 µM; in [7] it was 3.23 µM; in [10] it was 5.47 µM. Further, the TGI in [1] is 39.1 µM and 39.7 µM; in assay [2], 43 µM and 50.2 µM; in [3], 56.1 µM and 36.5 µM; in assay [4], above 100 µM; in [5], 36.8 µM and 52.7 µM; in [6], > 100 µM and 76.5 µM. In addition, the TGI in assay [7] is > 100 µM and 22.9 µM; in assay [8], above 100 µM; in assay [9], 61.2 µM and 77.2 µM; in assay [10], > 100 µM and 34.3 µM.
With `C=C1CCC2C3(C)COC(c4ccccc4Br)OC3CCC2(C)C1C/C=C1/C(=O)OCC1OC(C)=O` (stereo not given), the GI50 was 1.34 µM in assay [1]; 1.6 µM in assay [2]; 1.53 µM in assay [3]; 1.18 µM in assay [4]; 1.92 µM in assay [5]; 1.76 µM in [6]. Also, the GI50 in assay [7] is 1.63 µM; in assay [8] it was 0.73 µM; in assay [9] it was 1.82 µM; in assay [10], 1.6 µM. For the same molecule, the TGI is 2.72 µM in assay [1]; 3.91 µM in [2]; 2.86 µM in [3]; 3.12 µM in assay [4]; 4.12 µM in assay [5]; 3.15 µM in assay [6]. For the same molecule, the total growth inhibition concentration (TGI) came out at 3.76 µM in assay [7], 2.25 µM in [8], 4.57 µM in assay [9] and 2.96 µM in assay [10].
Take `CCCc1cc(=O)n2c(C(=O)Nc3ccccc3OC)c(C(=O)Nc3ccc(F)cc3)sc2n1`: the GI50 in assay [1] is 23.4 µM; in assay [2] it was 34.3 µM; in assay [3], 16.8 µM; in assay [4], 39.2 µM; in [5], 59.5 µM; in assay [6] it was 22 µM. Moreover, the GI50 was 3.61 µM in assay [7], 72 µM in assay [8], 19 µM in assay [9] and 5.11 µM in assay [10]. The TGI was 81.8 µM in assay [1]; 97.1 µM in assay [2]; 38 µM in assay [3]; above 160 µM in [4]; above 160 µM in [5]; 61.8 µM in assay [6]. Further, the TGI was 12.9 µM in assay [7], above 160 µM in [8], 61.7 µM in assay [9] and 18.7 µM in assay [10].
